Assays:
[1] = molecular target: PAF (10 nM)-induced aggregation (Cavia porcellus, UniProt P21556); assay: Inhibitory effect on PAF-induced platelet aggregation (platelet rich plasma, absorbancy method, aggregometer of Born); type: cell-based; conditions: male guinea pig platelet rich plasma
Description: Whole blood of male guinea pig was collected with a 3.8% aqueous solution of trisodium citrate in a proportion of 9:1 (v/v) and the mixture was centrifuged (120 x g) for 10 minutes at room temperature to obtain platelet rich plasma. Using obtained plasma, PAF (10 nM)-induced aggregation was determined by the absorbancy method using an aggrego-meter of Born [cf. J. Physiol., 162, 67 (1962)].
The evaluation is conducted using the concentration of compounds of the present invention required to produce a 50% inhibition of each effect, i.e. IC50.

[2] = system: mice; assay: Acute toxicity by intravenous administration; type: in vivo; conditions: five mice, intravenous to tail vein, dose of 100 mg/Kg
Description: On the other hand, it was confirmed that the acute toxicity of all extent of the compounds of the present invention was more than 100 mg/Kg by intravenous administration. Therefore, glycerol derivatives of the present invention may be considered to be sufficiently safe and suitable for medical use. For example, the mortality (daed/used) in glycerol derivatives of the present invention, i.e. compounds prepared in Example 4 was 0/5, when glycerol derivatives was intravenous administered to tail vein in five mice at the dose of 100 mg/Kg.

Chain of PAF (10 nM)-induced aggregation (P21556 whole entry): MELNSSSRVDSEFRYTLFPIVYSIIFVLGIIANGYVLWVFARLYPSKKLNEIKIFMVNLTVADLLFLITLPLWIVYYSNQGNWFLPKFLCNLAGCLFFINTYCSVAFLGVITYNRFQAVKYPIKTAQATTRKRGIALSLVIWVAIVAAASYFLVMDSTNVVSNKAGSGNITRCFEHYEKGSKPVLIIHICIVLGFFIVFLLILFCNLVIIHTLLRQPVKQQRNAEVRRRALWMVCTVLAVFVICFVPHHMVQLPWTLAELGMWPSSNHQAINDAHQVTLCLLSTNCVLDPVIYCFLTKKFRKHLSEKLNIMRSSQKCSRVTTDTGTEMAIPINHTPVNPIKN

`CCCCCCCCCCCCCCCCOCC(COCCCc1ccc([N+](C)(C)C)cc1)NC(=O)OCC(C)C` (racemic) [Example 9] showed an IC50 [1] of 3.7 µM.
`CCCCCCCCCCCCCCCCOCC(COc1ccc(CCCC[N+](C)(C)C)cc1)NC(=O)NC` (centres unmarked) [5(a)] was tested, and the IC50 [1] was 4.7 µM.
With `CCCCCCCCCCCCCCCCOCC(COc1ccc(CCCC[N+](C)(C)C)cc1)OC(C)=O` (centres unmarked) [Example 2] the IC50 [1] was 5 µM.
With `CCCCCCCCCCCCCCCCOCC(COc1ccc(CCCC[N+](C)(C)C)cc1)NC(=O)OCC(C)C` (centres unmarked) [Example 4] the “mortality (daed/used)” value [2] was 0/5.
In the case of `CCCCCCCCCCCCCCCCOCC(COc1ccc(CCCC[N+](C)(C)C)cc1)NC(C)=O` (centres unmarked) [Example 5], the IC50 [1] is reported as 6.7 µM.

From patent EP0145303A1, “Glycerol derivatives” (ONO PHARMACEUTICAL CO., LTD., priority 1983, dated 1985)
